Results taken from patent US6818780B2, “P-hydroxyphenyl propionic acid derivatives as antiproliferative agents” (Consejo Superior de Investigaciones Cientificas, priority 2000, dated 2004).

Tested on: human peripheral blood mononuclear cells (CMSP)
Assay: Test on lymphocyte proliferation: human peripheral blood mononuclear cells (3H-thymidine incorporation), with or without rhIL-2
Type: cell-based
Details: for Proliferation of human peripheral blood mononuclear cells in the presence of rhIL-2, PHA 10 μg/ml (cpm ± DS) / Proliferation of human peripheral blood mononuclear cells in the presence of rhIL-2, aCD3 5 μg/ml (cpm ± DS) / Proliferation of human peripheral blood mononuclear cells in the presence of rhIL-2, aCD3 + Con A (cpm ± DS) / Proliferation of human peripheral blood mononuclear cells in the presence of rhIL-2, aCD3 + PHA (cpm ± DS) / Proliferation of human peripheral blood mononuclear cells in the presence of rhIL-2, Con A 2 μg/ml (cpm ± DS) / Proliferation of human peripheral blood mononuclear cells in the presence of rhIL-2, Medium (cpm ± DS): rhIL-2 100 UI/ml; for Proliferation of human peripheral blood mononuclear cells in the presence of rhIL-2, PHA 10 μg/ml (cpm ± DS) / Proliferation of human peripheral blood mononuclear cells in the presence of rhIL-2, aCD3 5 μg/ml (cpm ± DS) / Proliferation of human peripheral blood mononuclear cells in the presence of rhIL-2, aCD3 + Con A (cpm ± DS) / Proliferation of human peripheral blood mononuclear cells in the presence of rhIL-2, aCD3 + PHA (cpm ± DS) / Proliferation of human peripheral blood mononuclear cells, Con A 2 μg/ml (cpm ± DS) / Proliferation of human peripheral blood mononuclear cells, Medium (cpm ± DS) / Proliferation of human peripheral blood mononuclear cells, PHA 10 μg/ml (cpm ± DS) / Proliferation of human peripheral blood mononuclear cells, aCD3 5 μg/ml (cpm ± DS) / Proliferation of human peripheral blood mononuclear cells, aCD3 + Con A (cpm ± DS) / Proliferation of human peripheral blood mononuclear cells, aCD3 + PHA (cpm ± DS) / Proliferation of human peripheral blood mononuclear cells in the presence of rhIL-2, Con A 2 μg/ml (cpm ± DS) / Proliferation of human peripheral blood mononuclear cells in the presence of rhIL-2, Medium (cpm ± DS): 5 days; for Proliferation of human peripheral blood mononuclear cells, Con A 2 μg/ml (cpm ± DS) / Proliferation of human peripheral blood mononuclear cells, Medium (cpm ± DS) / Proliferation of human peripheral blood mononuclear cells, PHA 10 μg/ml (cpm ± DS) / Proliferation of human peripheral blood mononuclear cells, aCD3 5 μg/ml (cpm ± DS) / Proliferation of human peripheral blood mononuclear cells, aCD3 + Con A (cpm ± DS) / Proliferation of human peripheral blood mononuclear cells, aCD3 + PHA (cpm ± DS): no rhIL-2
Text: Tests on Human Peripheral Blood Mononuclear Cells Material and Methods:
In order to study more deeply the effects of lactone on cell proliferation, we checked whether the effects described in the above section on cells of murine origin were specific to the cell type and the species or whether, on the other hand, these effects were xeno-independent. For this, we purified human peripheral blood mononuclear cells from healthy controls and we proceeded to study the possible effects of inhibition on the proliferative activity of peripheral blood mononuclear cells (CMSP) from humans, induced by different mitogenic agents acting alone and/or in costimulation with other mitogens and in the presence or absence of recombinant human interleukin 2 (rhIL-2).
Mitogens: Phytohaemaglutinin M (PHA) (Difco Lab., Detroit, Mich., USA), Concanavalin A (Con A, 2 μg/ml, Sigma Chemical Co., Mich., USA), Immobilised anti-CD3 (OKT3, 5 μg/ml, Ortho-mune, Orthodiagnostic System) and rhIL-2 (100 IU/ml, Hoffman-La Roche, N.J., USA).
All the reagents included in these tests were diluted in RPMI 1640 culture medium (Whitaker Bioproducts, Walkersville, USA) supplemented with 10% of decomplemented foetal calf serum (Biochrom K G, Berlin), L-glutamin (2 mM, Biochrom K G), Hepes (25 mM, Biochrom K G) and antibiotic (1% penicillin streptomycin, Difco Lab, Detroit, Mich., USA).
Also, all the mitogens were optimised in a dose response way in order to obtaining the maximum proliferative response after 5 days of culture.
Venous blood: The CMSP were obtained from venous blood extracted by antecubital venous puncture. 50 ml of blood were extracted to which were added 50 U of calcic heparin and the mixture was diluted 1/1 (vol/vol) with PSS.
Human mononucleated cells: In order to isolate the CMSP they were proceeded to be separated from the rest of the blood components by means of the formation of a density gradient on Ficoll. The cells thus obtained are resuspended in PSS and centrifuged at 400×g for 10 minutes (washing process) and then resuspended in PSS. This operation is repeated three times. In the last of them, PSS is replaced with complete medium.
General culture conditions: All cell cultures were developed under conditions of sterility in a vertical laminar flow chamber, using single-use sterile materials or materials sterilised in an autoclave or with ethylene oxide. The cultures were conserved in a stove kept at a temperature of 37° C., in an atmosphere with 5% CO2 and relative humidity of 95%. In the various experiments performed, the purified CMSP cell preparations were incubated in sterile dishes with 96 wells at concentrations of 5×10^4 cells/well (200 μl) in the presence of different concentrations of different mitogens for 5 days.
The method used for quantifying the cell proliferation was analysis of the incorporation of ^3H-thymidine (^3H-T) into DNA synthesised de novo, detecting the emission of β radiation from the dry extracts of cell cultures to which the tritiated base had been added before its finalisation and collection. The synthesis of DNA was done in triplicate on sterile dishes with 96 flat-bottom wells.
From 20 to 24 hour prior to terminating the cell culture, 1 μCi of ^3H-T was added to each well containing medium; the cultures were gathered by suction through a glass filter, using a Skatron culture collector for this.
The synthesis of DNA has been expressed in counts per minute (cpm). Each test was conducted in triplicate, with those data having a variability greater than 10% compared to the mean of the triplicate being rejected, since they could indicate a technical error or contamination in the culture. The cultures were carried out at a constant cell volume per well, as well as at a constant volume of 200 μl.
Negative Control: Cells in the Presence of Complete Culture Medium
Positive Control: Stimulation of Cells without the Presence of Lactone […]

SMILES: C=C1C(=O)OC(CCc2ccc(OC)cc2)C1C (stereo not shown) [lactone]
- Proliferation of human peripheral blood mononuclear cells in the presence of rhIL-2, PHA 10 μg/ml (cpm ± DS) (Lactone 1 μg/ml): 110507 ± 698 cpm
- Proliferation of human peripheral blood mononuclear cells in the presence of rhIL-2, aCD3 5 μg/ml (cpm ± DS) (Lactone 1 μg/ml): 36280 ± 77 cpm
- Proliferation of human peripheral blood mononuclear cells in the presence of rhIL-2, aCD3 + Con A (cpm ± DS) (Lactone 1 μg/ml): 66429 ± 9241 cpm
- Proliferation of human peripheral blood mononuclear cells in the presence of rhIL-2, aCD3 + PHA (cpm ± DS) (Lactone 1 μg/ml): 88220 ± 3174 cpm
- Proliferation of human peripheral blood mononuclear cells, Con A 2 μg/ml (cpm ± DS) (Lactone 10 μg/ml): 48 ± 7 cpm
- Proliferation of human peripheral blood mononuclear cells, Medium (cpm ± DS) (Lactone 10 μg/ml): 72 ± 72 cpm
- Proliferation of human peripheral blood mononuclear cells, PHA 10 μg/ml (cpm ± DS) (Lactone 10 μg/ml): 71 ± 14 cpm
- Proliferation of human peripheral blood mononuclear cells, aCD3 5 μg/ml (cpm ± DS) (Lactone 10 μg/ml): 119 ± 7 cpm
- Proliferation of human peripheral blood mononuclear cells, aCD3 + Con A (cpm ± DS) (Lactone 10 μg/ml): 11 ± 1 cpm
- Proliferation of human peripheral blood mononuclear cells, aCD3 + PHA (cpm ± DS) (Lactone 10 μg/ml): 23 ± 7 cpm
- Proliferation of human peripheral blood mononuclear cells in the presence of rhIL-2, Con A 2 μg/ml (cpm ± DS) (Lactone 10 μg/ml): 611 ± 75 cpm
- Proliferation of human peripheral blood mononuclear cells in the presence of rhIL-2, Medium (cpm ± DS) (Lactone 10 μg/ml): 866 ± 66 cpm
- Proliferation of human peripheral blood mononuclear cells in the presence of rhIL-2, PHA 10 μg/ml (cpm ± DS) (Lactone 10 μg/ml): 579 ± 1033 cpm
- Proliferation of human peripheral blood mononuclear cells in the presence of rhIL-2, aCD3 5 μg/ml (cpm ± DS) (Lactone 10 μg/ml): 489 ± 25 cpm
- Proliferation of human peripheral blood mononuclear cells in the presence of rhIL-2, aCD3 + Con A (cpm ± DS) (Lactone 10 μg/ml): 164 ± 65 cpm
- Proliferation of human peripheral blood mononuclear cells in the presence of rhIL-2, aCD3 + PHA (cpm ± DS) (Lactone 10 μg/ml): 304 ± 35 cpm
- Proliferation of human peripheral blood mononuclear cells, Con A 2 μg/ml (cpm ± DS) (Lactone 100 μg/ml): 204 ± 43 cpm
- Proliferation of human peripheral blood mononuclear cells, Medium (cpm ± DS) (Lactone 100 μg/ml): 104 ± 26 cpm
- Proliferation of human peripheral blood mononuclear cells, PHA 10 μg/ml (cpm ± DS) (Lactone 100 μg/ml): 1086 ± 308 cpm
- Proliferation of human peripheral blood mononuclear cells, aCD3 5 μg/ml (cpm ± DS) (Lactone 100 μg/ml): 39 ± 10 cpm
- Proliferation of human peripheral blood mononuclear cells, aCD3 + Con A (cpm ± DS) (Lactone 100 μg/ml): 8 ± 6 cpm
- Proliferation of human peripheral blood mononuclear cells, aCD3 + PHA (cpm ± DS) (Lactone 100 μg/ml): 13 ± 4 cpm
- Proliferation of human peripheral blood mononuclear cells in the presence of rhIL-2, Con A 2 μg/ml (cpm ± DS) (Lactone 100 μg/ml): 532 ± 109 cpm
- Proliferation of human peripheral blood mononuclear cells in the presence of rhIL-2, Medium (cpm ± DS) (Lactone 100 μg/ml): 918 ± 1 cpm
- Proliferation of human peripheral blood mononuclear cells in the presence of rhIL-2, PHA 10 μg/ml (cpm ± DS) (Lactone 100 μg/ml): 892 ± 199 cpm
- Proliferation of human peripheral blood mononuclear cells in the presence of rhIL-2, aCD3 5 μg/ml (cpm ± DS) (Lactone 100 μg/ml): 400 ± 44 cpm
- Proliferation of human peripheral blood mononuclear cells in the presence of rhIL-2, aCD3 + Con A (cpm ± DS) (Lactone 100 μg/ml): 237 ± 109 cpm
- Proliferation of human peripheral blood mononuclear cells in the presence of rhIL-2, aCD3 + PHA (cpm ± DS) (Lactone 100 μg/ml): 286 ± 10 cpm
- Lactone concentration at which the blastogen response induced in CMSP falls by 50% (induced by Con A+rhIL-2): 0.27 µg/mL
- Lactone concentration at which the blastogen response induced in CMSP falls by 50% (induced by Concavalin A (Con A)): 0.5 µg/mL
- Lactone concentration at which the blastogen response induced in CMSP falls by 50% (induced by PHA+rhIL-2): 0.29 µg/mL
- Lactone concentration at which the blastogen response induced in CMSP falls by 50% (induced by aCD3+Con A): 0.21 µg/mL
- Lactone concentration at which the blastogen response induced in CMSP falls by 50% (induced by aCD3+PHA): 0.24 µg/mL
- Lactone concentration at which the blastogen response induced in CMSP falls by 50% (induced by immobilised aCD3+Con A+rhIL-2): 0.25 µg/mL
- Lactone concentration at which the blastogen response induced in CMSP falls by 50% (induced by immobilised aCD3+PHA+rhIL-2): 0.26 µg/mL
- Lactone concentration at which the blastogen response induced in CMSP falls by 50% (induced by immobilised aCD3+rhIL-2): 0.24 µg/mL
- Lactone concentration at which the blastogen response induced in CMSP falls by 50% (induced by immobilised anti-CD3 (aCD3)): 0.06 µg/mL
- Lactone concentration at which the blastogen response induced in CMSP falls by 50% (induced by phytohaemaglutinin M (PHA)): 0.25 µg/mL
- Lactone concentration at which the blastogen response induced in CMSP falls by 50% (induced by rhIL-2): 0.26 µg/mL
- Lactone concentration at which the spontaneous blastogen response of the CMSP falls by 50% (no mitogen): 0.66 µg/mL
